Laboratory results published in ChEMBL document CHEMBL3875189, “A benzo[b]thiophene-based selective type 4 S1P receptor agonist” (Bioorg Med Chem Lett, 2017).
Active and inactive are the calls of the source. The rule behind the calls is not given here.

Tests used:
[1] = biological target: T1, Sphingosine 1-phosphate receptor 4 (Homo sapiens, UniProt O95977); assay: Activation of human S1PR4 expressed in CHO cells assessed as suppression of forskolin-induced intracellular cAMP level measured after 15 mins by ELISA; format: functional, cell-based
T1 sequence (O95977 whole entry): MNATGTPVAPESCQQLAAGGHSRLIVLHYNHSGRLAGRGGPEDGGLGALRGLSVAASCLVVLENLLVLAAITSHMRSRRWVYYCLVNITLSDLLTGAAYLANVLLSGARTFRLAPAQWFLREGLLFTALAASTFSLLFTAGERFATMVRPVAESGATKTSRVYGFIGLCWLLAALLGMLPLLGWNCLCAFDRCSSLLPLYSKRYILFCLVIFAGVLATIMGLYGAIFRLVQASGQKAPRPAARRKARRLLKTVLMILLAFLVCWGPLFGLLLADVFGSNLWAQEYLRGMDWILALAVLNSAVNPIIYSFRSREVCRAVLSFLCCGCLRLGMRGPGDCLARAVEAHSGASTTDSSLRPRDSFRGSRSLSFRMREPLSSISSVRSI

[2] = biological target: Sphingosine 1-phosphate receptor 3 (Homo sapiens, UniProt Q99500); assay: Agonist activity at recombinant human S1PR3 expressed in CHO cell membranes assessed as [35S]GTP-gammaS binding measured after 1.5 hrs by TopCount scintillation counting method
[3] = biological target: T2, Sphingosine 1-phosphate receptor 4 (Homo sapiens) (UniProt O95977); assay: Activation of human S1PR4 expressed in CHO cells assessed as suppression of forskolin-induced intracellular cAMP level at 1 to 10 uM measured after 15 mins by ELISA; format: functional, cell-based
T2 sequence (whole entry): T1 sequence (O95977 whole entry)

[4] = biological target: T2, Sphingosine 1-phosphate receptor 4 (Homo sapiens); assay: Activation of human S1PR4 expressed in CHO cells assessed as ERK1/2 phosphorylation at 100 nM treated under serum-free condition post 1 day serum starvation measured after 5 mins by Western blot analysis; format: cell-based
[5] = biological target: T3, Sphingosine 1-phosphate receptor 5 (Homo sapiens, UniProt Q9H228); assay: Agonist activity at recombinant human S1PR5 expressed in CHO cell membranes assessed as [35S]GTP-gammaS binding measured after 1.5 hrs by TopCount scintillation counting method
[6] = biological target: Sphingosine 1-phosphate receptor 2 (Homo sapiens, UniProt O95136); assay: Agonist activity at recombinant human S1PR2 expressed in CHO cell membranes assessed as [35S]GTP-gammaS binding measured after 1.5 hrs by TopCount scintillation counting method
[7] = biological target: T1, Sphingosine 1-phosphate receptor 4; assay: Agonist activity at recombinant human S1PR4 expressed in CHO cell membranes assessed as [35S]GTP-gammaS binding measured after 1.5 hrs by TopCount scintillation counting method
[8] = biological target: T2, Sphingosine 1-phosphate receptor 4 (Homo sapiens); assay: Activation of human S1PR4 expressed in CHO cells assessed as ERK1/2 phosphorylation at 10 uM treated under serum-free condition post 1 day serum starvation measured after 5 mins by Western blot analysis; format: cell-based
[9] = biological target: Sphingosine 1-phosphate receptor 1 (Homo sapiens, UniProt P21453); assay: Agonist activity at recombinant human S1PR1 expressed in CHO cell membranes assessed as [35S]GTP-gammaS binding measured after 1.5 hrs by TopCount scintillation counting method
[10] = biological target: T3, Sphingosine 1-phosphate receptor 5; assay: Agonist activity at recombinant human S1PR5 expressed in CHO cell membranes assessed as [35S]GTP-gammaS binding measured after 1.5 hrs by TopCount scintillation counting method relative to S1P

T3 sequence (Q9H228 whole entry): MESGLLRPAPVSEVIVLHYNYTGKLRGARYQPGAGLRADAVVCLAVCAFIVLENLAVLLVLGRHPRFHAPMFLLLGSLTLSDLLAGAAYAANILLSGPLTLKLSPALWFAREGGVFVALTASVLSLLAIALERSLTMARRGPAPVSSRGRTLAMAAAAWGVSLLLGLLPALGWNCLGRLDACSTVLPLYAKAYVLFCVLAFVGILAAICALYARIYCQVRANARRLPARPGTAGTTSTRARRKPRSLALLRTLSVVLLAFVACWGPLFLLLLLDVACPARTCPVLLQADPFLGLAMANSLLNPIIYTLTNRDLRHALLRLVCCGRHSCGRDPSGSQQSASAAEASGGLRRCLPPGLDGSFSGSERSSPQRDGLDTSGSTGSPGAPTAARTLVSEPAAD
Sphingosine 1-phosphate receptor 1, sequence (P21453 whole entry): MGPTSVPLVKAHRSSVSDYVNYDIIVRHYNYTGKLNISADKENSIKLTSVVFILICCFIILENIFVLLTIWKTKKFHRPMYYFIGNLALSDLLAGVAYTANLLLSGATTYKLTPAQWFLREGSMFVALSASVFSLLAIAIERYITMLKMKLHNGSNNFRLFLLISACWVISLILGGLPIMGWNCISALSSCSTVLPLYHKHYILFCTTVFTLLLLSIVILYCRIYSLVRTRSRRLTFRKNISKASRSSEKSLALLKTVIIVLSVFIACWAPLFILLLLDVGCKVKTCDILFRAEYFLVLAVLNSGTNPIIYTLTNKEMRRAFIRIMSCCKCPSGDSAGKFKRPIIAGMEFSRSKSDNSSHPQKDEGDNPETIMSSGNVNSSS
Sphingosine 1-phosphate receptor 3, sequence (Q99500 whole entry): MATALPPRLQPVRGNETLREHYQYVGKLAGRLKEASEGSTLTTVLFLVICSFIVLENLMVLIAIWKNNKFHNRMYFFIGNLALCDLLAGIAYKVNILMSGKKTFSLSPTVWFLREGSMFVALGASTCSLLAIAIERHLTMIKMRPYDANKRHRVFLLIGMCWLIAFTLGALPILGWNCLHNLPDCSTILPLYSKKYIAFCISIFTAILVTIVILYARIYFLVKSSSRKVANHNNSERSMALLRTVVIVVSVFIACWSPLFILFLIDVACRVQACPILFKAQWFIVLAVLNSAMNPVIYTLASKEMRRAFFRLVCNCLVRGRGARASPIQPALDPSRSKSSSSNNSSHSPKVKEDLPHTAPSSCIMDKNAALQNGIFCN
Sphingosine 1-phosphate receptor 2, sequence (O95136 whole entry): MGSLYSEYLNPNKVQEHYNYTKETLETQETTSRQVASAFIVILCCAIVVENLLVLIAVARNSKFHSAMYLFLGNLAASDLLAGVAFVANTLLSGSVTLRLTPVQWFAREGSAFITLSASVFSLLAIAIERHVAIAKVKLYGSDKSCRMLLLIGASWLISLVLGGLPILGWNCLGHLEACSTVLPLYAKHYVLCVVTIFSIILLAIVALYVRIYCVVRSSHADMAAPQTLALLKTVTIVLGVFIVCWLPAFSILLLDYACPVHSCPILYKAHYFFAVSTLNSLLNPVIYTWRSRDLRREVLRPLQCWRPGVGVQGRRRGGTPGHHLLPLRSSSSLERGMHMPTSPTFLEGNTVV

Q: How did the EC50 [1] turn out when `O=C(O)CCCNCc1cc2cccc(-c3ccc4ccccc4c3)c2s1` was run?
A: 154 nM

Q: What about the EC50 [2] of the same compound?
A: > 100000 nM

Q: And the Activity [3]?
A: Active

Q: What about the Activity [4] of the same compound?
A: Active

Q: What about the EC50 [5] of the same compound?
A: 370 nM

Q: And the EC50 [6]?
A: > 100000 nM

Q: And the EC50 [7]?
A: 200 nM

Q: What about the Activity [8] of the same compound?
A: Active

Q: What about the EC50 [9] of the same compound?
A: > 100000 nM

Q: What about the Efficacy [10] of the same compound?
A: 24%
